Results published in ChEMBL document CHEMBL1137771, “Non-nucleoside inhibitors of HCV polymerase NS5B. Part 2: Synthesis and structure-activity relationships of benzothiazine-substituted quinolinediones” (Bioorg Med Chem Lett, 2009).
≈ marks a conversion by molar mass, not a printed value.

Assays:
[1] = Solubility of the compound; format: physicochemical
Hepatitis C virus [2] = experiment: Inhibition of HCV 1b isolate BK NS5B Cdelta21 polymerase expressed in Escherichia coli; design: species or system Hepatitis C virus subtype 1b
[3] = Oral bioavailability in rat; format: ADME, organism-based; settings: in vivo
Hepatitis C virus [4] = experiment: Inhibition of HCV genotype 1b isolate con1 NS5B polymerase assessed as incorporation of radiolabeled nucleotide into RNA product; design: species or system Hepacivirus hominis
[5] = Cytotoxicity against human 2209-23 cells by WST1 assay; format: cell-based
Hepatitis C virus [6] = experiment: Antiviral activity against HCV genotype 1b isolate con1 infected in human 2209-23 cells assessed as inhibition of [3H]thymidine incorporation into DNA by scintillation proximity assay in presence of 5% fetal bovine serum; format: functional, organism-based, Hepacivirus hominis; settings: isolate Con1, 2209-23
Hepatitis C virus [7] = experiment: Antiviral activity against HCV genotype 1b isolate con1 infected in human 2209-23 cells assessed as inhibition of [3H]thymidine incorporation into DNA by scintillation proximity assay in presence of 40% human serum albumin; format: functional, organism-based, Hepacivirus hominis; settings: isolate Con1, 2209-23
Hepatitis C virus [8] = experiment: Ratio of EC50 for HCV genotype 1b isolate con1 in presence of human serum albumin to EC50 for HCV genotype 1b isolate con1 in presence of fetal bovine serum; format: functional, Hepacivirus hominis
[9] = Dissociation constant, pKa of the compound; format: physicochemical
Hepatitis C virus [10] = experiment: Antiviral activity against HCV genotype 1b infected in human HuH7 cells by replicon assay; format: functional, organism-based, Hepacivirus hominis; settings: Huh-7

| Compound | solubility [1] | IC50 (Hepatitis C virus [2]) | bioavailability [3] | IC50 (Hepatitis C virus [4]) | EC50 (Hepatitis C virus [6]) | EC50 (Hepatitis C virus [7]) | pKa [9] | EC50 (Hepatitis C virus [10]) | CC50 [5] | fold change (FC) (Hepatitis C virus [8]) |
| --- | --- | --- | --- | --- | --- | --- | --- | --- | --- | --- |
| CS(=O)(=O)Nc1ccc2c(c1)S(=O)(=O)C=C(c1c(O)c3cc(F)ccc3n(Cc3ccc(F)cc3)c1=O)N2 | – | – | – | – | 14 nM | – | 3.8 | – | > 50000 nM | 13 |
| CS(=O)(=O)Nc1ccc2c(c1)S(=O)(=O)C=C(c1c(O)c3cc(Cl)ccc3n(Cc3ccc(F)cc3)c1=O)N2 | – | – | – | 10 nM | 166 nM | – | – | – | > 50000 nM | – |
| NC(=O)COc1ccc2c(c1)S(=O)(=O)C=C(c1c(O)c3cc(F)ccc3n(Cc3ccc(F)cc3)c1=O)N2 | – | – | – | 10 nM | 1190 nM | – | – | – | > 50000 nM | – |
| NS(=O)(=O)Nc1ccc2c(c1)S(=O)(=O)C=C(c1c(O)c3cc(F)ccc3n(Cc3ccc(F)cc3)c1=O)N2 | – | – | – | 7 nM | 15 nM | – | – | – | > 50000 nM | – |
| CN(c1ccc2c(c1)S(=O)(=O)C=C(c1c(O)c3cc(F)ccc3n(Cc3ccc(F)cc3)c1=O)N2)S(C)(=O)=O | – | – | – | 106 nM | 1470 nM | – | – | – | > 50000 nM | – |
| CS(=O)(=O)Nc1ccc2c(c1)S(=O)(=O)C=C(c1c(O)c3c(Cl)cccc3n(Cc3ccc(F)cc3)c1=O)N2 | – | – | – | 12 nM | 48 nM | 593 nM | – | – | > 50000 nM | 12.3 |
| CS(=O)(=O)Nc1ccc2c(c1)S(=O)(=O)C=C(c1c(O)c3cccc(F)c3n(Cc3ccc(F)cc3)c1=O)N2 | – | – | – | 8 nM | 103 nM | 2780 nM | – | – | > 50000 nM | 26.9 |
| CS(=O)(=O)NCc1ccc2c(c1)S(=O)(=O)C=C(c1c(O)c3cc(F)ccc3n(Cc3ccc(F)cc3)c1=O)N2 | – | – | – | 68 nM | 6930 nM | – | – | – | > 50000 nM | – |
| COc1ccc2c(c1)c(O)c(C1=CS(=O)(=O)c3cc(NS(C)(=O)=O)ccc3N1)c(=O)n2Cc1ccc(F)cc1 | – | – | – | 5 nM | 143 nM | 2050 nM | – | – | > 50000 nM | 14.3 |
| CS(=O)(=O)Nc1ccc2c(c1)S(=O)(=O)C=C(c1c(O)c3ccc(F)cc3n(Cc3ccc(F)cc3)c1=O)N2 | – | – | – | 10 nM | 74 nM | 898 nM | – | – | > 50000 nM | 12.1 |
| CS(=O)(=O)Nc1ccc2c(c1)S(=O)(=O)C=C(c1c(O)c3cc(F)ccc3n(Cc3ccc(F)c(Cl)c3)c1=O)N2 | – | – | – | 16 nM | 18 nM | – | – | – | > 50000 nM | – |
| CNC(=O)COc1ccc2c(c1)S(=O)(=O)C=C(c1c(O)c3cc(F)ccc3n(Cc3ccc(F)cc3)c1=O)N2 | – | – | – | 25 nM | 869 nM | – | – | – | > 50000 nM | – |
| CS(=O)(=O)Nc1ccc2c(c1)S(=O)(=O)C=C(c1c(O)c3cc(F)ccc3n(Cc3ccc(F)c(F)c3)c1=O)N2 | – | – | – | 14 nM | 15 nM | – | – | – | > 50000 nM | – |
| COc1cc(Cn2c(=O)c(C3=CS(=O)(=O)c4cc(NS(C)(=O)=O)ccc4N3)c(O)c3cc(F)ccc32)ccc1F | – | – | – | 10 nM | 100 nM | 528 nM | – | – | > 50000 nM | 9.2 |
| Cc1ccc2c(c1)c(O)c(C1=CS(=O)(=O)c3cc(NS(C)(=O)=O)ccc3N1)c(=O)n2Cc1ccc(F)cc1 | – | – | – | 17 nM | 25 nM | – | – | – | > 50000 nM | – |
| CS(=O)(=O)Nc1ccc2c(c1)S(=O)(=O)C=C(c1c(O)c3ccc(Cl)cc3n(Cc3ccc(F)cc3)c1=O)N2 | – | – | – | 384 nM | 2280 nM | – | – | – | > 50000 nM | – |

Continued, in another order:

| solubility [1] | IC50 (Hepatitis C virus [2]) | bioavailability [3] | IC50 (Hepatitis C virus [4]) | EC50 (Hepatitis C virus [6]) | EC50 (Hepatitis C virus [7]) | pKa [9] | EC50 (Hepatitis C virus [10]) | Compound | CC50 [5] | fold change (FC) (Hepatitis C virus [8]) |
| --- | --- | --- | --- | --- | --- | --- | --- | --- | --- | --- |
| < 1 µg/mL | 30 nM | 10% | – | – | – | – | – | O=c1c(C2=Nc3ccccc3S(=O)(=O)N2)c(O)c2cc(F)ccc2n1CCC1CC1 | – | – |
| – | – | – | 22 nM | 589 nM | – | – | – | CS(=O)(=O)Nc1ccc2c(c1)S(=O)(=O)C=C(c1c(O)c3cc(F)ccc3n(Cc3cccnc3)c1=O)N2 | > 50000 nM | – |
| – | – | – | 41 nM | 9 nM | – | – | – | CCCC(C)n1c(=O)c(C2=CS(=O)(=O)c3cc(NS(C)(=O)=O)ccc3N2)c(O)c2cc(F)ccc21 (stereo not given) | > 50000 nM | – |
| – | – | – | 12 nM | – | 241 nM | – | – | CC(C)(C)CCn1c(=O)c(C2=CS(=O)(=O)c3cc(NS(C)(=O)=O)ccc3N2)c(O)c2cc(F)ccc21 | > 50000 nM | – |
| – | – | – | 10 nM | 47 nM | 1200 nM | – | – | COC(C)(C)CCn1c(=O)c(C2=CS(=O)(=O)c3cc(NS(C)(=O)=O)ccc3N2)c(O)c2cc(F)ccc21 | > 50000 nM | 9.2 |
| – | – | – | 869 nM | 10900 nM | – | – | – | CC(=O)Nc1ccc2c(c1)S(=O)(=O)C=C(c1c(O)c3cc(F)ccc3n(Cc3ccc(F)cc3)c1=O)N2 | > 50000 nM | – |
| – | – | – | – | 726 nM | – | – | – | O=c1c(C2=CS(=O)(=O)c3ccccc3N2)c(O)c2cc(F)ccc2n1Cc1ccc(F)cc1 | > 50000 nM | – |
| 8 µg/mL (≈ 18.8 µM) | – | 79% | – | – | – | – | 1200 nM | O=c1c(C2=CS(=O)(=O)c3ccccc3N2)c(O)c2cc(F)ccc2n1CCC1CC1 | – | – |
| – | – | – | 148 nM | 1280 nM | – | – | – | O=c1c(C2=CS(=O)(=O)c3cc(F)ccc3N2)c(O)c2cc(F)ccc2n1Cc1ccc(F)cc1 | > 50000 nM | – |
| – | – | – | 694 nM | 4640 nM | – | – | – | N#Cc1ccc2c(c1)S(=O)(=O)C=C(c1c(O)c3cc(F)ccc3n(Cc3ccc(F)cc3)c1=O)N2 | > 50000 nM | – |
| – | – | – | 11 nM | 64 nM | 688 nM | – | – | CS(=O)(=O)Nc1ccc2c(c1)S(=O)(=O)C=C(c1c(O)c3cc(F)ccc3n(Cc3ccncc3)c1=O)N2 | > 50000 nM | 9.2 |
| – | – | – | 734 nM | 827 nM | – | – | – | Nc1ccc2c(c1)S(=O)(=O)C=C(c1c(O)c3cc(F)ccc3n(Cc3ccc(F)cc3)c1=O)N2 | > 50000 nM | – |
| – | – | – | 2 nM | 42 nM | 542 nM | – | – | CS(=O)(=O)Nc1ccc2c(c1)S(=O)(=O)C=C(c1c(O)c3ccccc3n(Cc3ccc(F)cc3)c1=O)N2 | > 50000 nM | 13 |
| – | – | – | 7 nM | 44 nM | 406 nM | – | – | CS(=O)(=O)Nc1ccc2c(c1)S(=O)(=O)C=C(c1c(O)c3cc(F)ccc3n(Cc3ccccc3)c1=O)N2 | > 50000 nM | 9.2 |
| – | – | – | 103 nM | 1200 nM | – | – | – | CS(=O)(=O)Nc1ccc2c(c1)S(=O)(=O)C=C(c1c(O)c3cc(F)ccc3n(Cc3ccccn3)c1=O)N2 | > 50000 nM | – |
| – | – | – | 69 nM | 1740 nM | – | – | – | O=c1c(C2=CS(=O)(=O)c3cc(O)ccc3N2)c(O)c2cc(F)ccc2n1Cc1ccc(F)cc1 | > 50000 nM | – |
| – | – | – | 18 nM | 100 nM | – | – | – | CS(=O)(=O)Nc1ccc2c(c1)S(=O)(=O)C=C(c1c(O)c3cc(F)ccc3n(CC3CCCCC3)c1=O)N2 | > 50000 nM | – |
| – | – | – | 3700 nM | 11900 nM | – | – | – | CS(=O)(=O)c1ccc2c(c1)S(=O)(=O)C=C(c1c(O)c3cc(F)ccc3n(Cc3ccc(F)cc3)c1=O)N2 | > 50000 nM | – |
